According to patent US8247211B2, “Glycopeptide antibiotics” (American Cyanamid Company, priority 2001, dated 2012):
≈ marks a conversion by molar mass, not a printed value.

Tests used:
Test in all cases: In vitro antibacterial evaluation: minimum inhibitory concentration (MIC), broth dilution method
Type in all cases: cell-based
Enterococcus sp. = test system: Enterococcus sp.
Summary of the method: (§1)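 MIC read as lowest drug level preventing visible growth. Organisms at 5×10^5 CFU/mL were exposed to a 64-0.06 μg/mL dilution series in Muller-Hinton II […] following NCCLS broth dilution standard M7-A2.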

Staphylococcus sp. = conditions: broth dilution, 18 hours at 35° C.
Summary of the method: as §1

Escherichia coli = test system: Escherichia coli
Summary of the method: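 An MIC is reported for each organism as the least concentration giving inhibition, using broth dilution over 64-0.06 μg/mL with a 5×10^5 CFU/mL inoculum.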

Streptococcus sp. = test system: Streptococcus sp.
Summary of the method: as §1

[1] = broth dilution, inoculum 5×10^5 CFU/mL, 18 hours at 35° C.

MIC Enterococcus avium (GC 4558) (Enterococcus sp.; [1]): 4 µg/mL (≈ 2.71 µM)
MIC Enterococcus faecalis (ATCC 29212) (Enterococcus sp.; [1]): 4 µg/mL (≈ 2.71 µM)
MIC Enterococcus faecalis (GC 2242) (Enterococcus sp.; [1]): 4 µg/mL (≈ 2.71 µM)
MIC Enterococcus faecalis (GC 2691) (Enterococcus sp.; [1]): 4 µg/mL (≈ 2.71 µM)
MIC Enterococcus faecalis (GC 3059) (Enterococcus sp.; [1]): 4 µg/mL (≈ 2.71 µM)
MIC Enterococcus faecalis (GC 4552) (Enterococcus sp.; [1]): 4 µg/mL (≈ 2.71 µM)
MIC Enterococcus faecalis (GC 4553) (Enterococcus sp.; [1]): 4 µg/mL (≈ 2.71 µM)
MIC Enterococcus faecalis (GC 4554) (Enterococcus sp.; [1]): 2 µg/mL (≈ 1.36 µM)
MIC Enterococcus faecalis (GC 6189) (Enterococcus sp.; [1]): 4 µg/mL (≈ 2.71 µM)
MIC Enterococcus faecium (GC 2243) (Enterococcus sp.; [1]): 4 µg/mL (≈ 2.71 µM)
MIC Enterococcus faecium (GC 4556) (Enterococcus sp.; [1]): 4 µg/mL (≈ 2.71 µM)
MIC Enterococcus faecium (GC 4557) (Enterococcus sp.; [1]): 4 µg/mL (≈ 2.71 µM)
MIC Enterococcus faecalis (ATCC 29212) (Enterococcus sp.; strain ATCC 29212): 4 µg/mL (≈ 2.71 µM)
MIC Enterococcus faecalis (GC 2242) (Enterococcus sp.; strain GC 2242): 4 µg/mL (≈ 2.71 µM)
MIC Enterococcus faecium (GC 2243) (Enterococcus sp.; strain GC 2243): 4 µg/mL (≈ 2.71 µM)
MIC Enterococcus faecalis (GC 2691) (Enterococcus sp.; strain GC 2691): 4 µg/mL (≈ 2.71 µM)
MIC Enterococcus faecalis (GC 3059) (Enterococcus sp.; strain GC 3059): 4 µg/mL (≈ 2.71 µM)
MIC Enterococcus faecalis (GC 4552) (Enterococcus sp.; strain GC 4552): 4 µg/mL (≈ 2.71 µM)
MIC Enterococcus faecalis (GC 4553) (Enterococcus sp.; strain GC 4553): 4 µg/mL (≈ 2.71 µM)
MIC Enterococcus faecalis (GC 4554) (Enterococcus sp.; strain GC 4554): 2 µg/mL (≈ 1.36 µM)
MIC Enterococcus faecium (GC 4556) (Enterococcus sp.; strain GC 4556): 4 µg/mL (≈ 2.71 µM)
MIC Enterococcus faecium (GC 4557) (Enterococcus sp.; strain GC 4557): 4 µg/mL (≈ 2.71 µM)
MIC Enterococcus avium (GC 4558) (Enterococcus sp.; strain GC 4558): 4 µg/mL (≈ 2.71 µM)
MIC Enterococcus faecalis (GC 6189) (Enterococcus sp.; strain GC 6189): 4 µg/mL (≈ 2.71 µM)
MIC Coagulase Negative Staphylococcus (GC 4547) (Staphylococcus sp.; 5×10^5 CFU/mL): 4 µg/mL (≈ 2.71 µM)
MIC Coagulase Negative Staphylococcus (GC 4548) (Staphylococcus sp.; 5×10^5 CFU/mL): 1 µg/mL (≈ 0.678 µM)
MIC Coagulase Negative Staphylococcus (GC 4549) (Staphylococcus sp.; 5×10^5 CFU/mL): 2 µg/mL (≈ 1.36 µM)
MIC Coagulase Negative Staphylococcus (GC 4551) (Staphylococcus sp.; 5×10^5 CFU/mL): 1 µg/mL (≈ 0.678 µM)
MIC Coagulase Negative Staphylococcus (GC 6257) (Staphylococcus sp.; 5×10^5 CFU/mL): 1 µg/mL (≈ 0.678 µM)
MIC Staphylococcus aureus (ATCC 29213) (Staphylococcus sp.; 5×10^5 CFU/mL): 4 µg/mL (≈ 2.71 µM)
MIC Staphylococcus aureus (GC 1131) (Staphylococcus sp.; 5×10^5 CFU/mL): 4 µg/mL (≈ 2.71 µM)
MIC Staphylococcus aureus (GC 3051) (Staphylococcus sp.; 5×10^5 CFU/mL): 4 µg/mL (≈ 2.71 µM)
MIC Staphylococcus aureus (GC 3053) (Staphylococcus sp.; 5×10^5 CFU/mL): 1 µg/mL (≈ 0.678 µM)
MIC Staphylococcus aureus (GC 4541) (Staphylococcus sp.; 5×10^5 CFU/mL): 2 µg/mL (≈ 1.36 µM)
MIC Staphylococcus aureus (GC 4542) (Staphylococcus sp.; 5×10^5 CFU/mL): 4 µg/mL (≈ 2.71 µM)
MIC Staphylococcus aureus (GC 4544) (Staphylococcus sp.; 5×10^5 CFU/mL): 2 µg/mL (≈ 1.36 µM)
MIC Staphylococcus aureus (GC 4545) (Staphylococcus sp.; 5×10^5 CFU/mL): 4 µg/mL (≈ 2.71 µM)
MIC Staphylococcus aureus-SMITH (GC 4543) (Staphylococcus sp.; 5×10^5 CFU/mL): 4 µg/mL (≈ 2.71 µM)
MIC Staphylococcus aureus (ATCC 29213) (Staphylococcus sp.; strain ATCC 29213): 4 µg/mL (≈ 2.71 µM)
MIC Staphylococcus aureus (GC 1131) (Staphylococcus sp.; strain GC 1131): 4 µg/mL (≈ 2.71 µM)
MIC Staphylococcus aureus (GC 3051) (Staphylococcus sp.; strain GC 3051): 4 µg/mL (≈ 2.71 µM)
MIC Staphylococcus aureus (GC 3053) (Staphylococcus sp.; strain GC 3053): 1 µg/mL (≈ 0.678 µM)
MIC Staphylococcus aureus (GC 4541) (Staphylococcus sp.; strain GC 4541): 2 µg/mL (≈ 1.36 µM)
MIC Staphylococcus aureus (GC 4542) (Staphylococcus sp.; strain GC 4542): 4 µg/mL (≈ 2.71 µM)
MIC Staphylococcus aureus (GC 4544) (Staphylococcus sp.; strain GC 4544): 2 µg/mL (≈ 1.36 µM)
MIC Staphylococcus aureus (GC 4545) (Staphylococcus sp.; strain GC 4545): 4 µg/mL (≈ 2.71 µM)
MIC Escherichia coli (ATCC 25922) (Escherichia coli; strain ATCC 25922): >64 µg/mL
MIC Escherichia coli (GC 4559) (Escherichia coli; strain GC 4559): >64 µg/mL
MIC Escherichi coli (GC 4560) (Escherichia coli; strain GC 4560): 4 µg/mL (≈ 2.71 µM)
MIC Streptococcus agalactiae (GC 4564) (Streptococcus sp.; [1]): <0.06 µg/mL
MIC Streptococcus pneumoniae (ATCC 6301) (Streptococcus sp.; [1]): <0.06 µg/mL
MIC Streptococcus pneumoniae (GC 1894) (Streptococcus sp.; [1]): <0.06 µg/mL
MIC Streptococcus pneumoniae (GC 4565) (Streptococcus sp.; [1]): <0.06 µg/mL
MIC Streptococcus pyogenes (GC 4563) (Streptococcus sp.; [1]): <0.06 µg/mL
MIC Streptococcus pneumoniae (ATCC 6301) (Streptococcus sp.; strain ATCC 6301): <0.06 µg/mL
MIC Streptococcus pneumoniae (GC 1894) (Streptococcus sp.; strain GC 1894): <0.06 µg/mL
MIC Streptococcus pyogenes (GC 4563) (Streptococcus sp.; strain GC 4563): <0.06 µg/mL
MIC Streptococcus agalactiae (GC 4564) (Streptococcus sp.; strain GC 4564): <0.06 µg/mL
MIC Streptococcus pneumoniae (GC 4565) (Streptococcus sp.; strain GC 4565): <0.06 µg/mL
Compound: CC(c1ccccc1)C1NC(=O)CNC(=O)C(CO)NC(=O)C(C(O)C2CNC(=N)N2C2OC(CO)C(O)C(O)C2O)NC(=O)C(C(O)C2CNC(=N)N2)NC(=O)C(Cc2ccc(OC3OC(CO)C(OC4OC5COC(c6cccc(Oc7ccccc7)c6)OC5C(O)C4O)C(O)C3O)cc2)NC1=O (stereo not drawn) [Example 170, Cyclo[glycyl-β-methylphenylalanyl-O-[4-O-[4,6-O-(3-phenoxybenzylidene)hexopyranosyl]-hexopyranosyl]tyrosyl-3-(2-iminoimidazoliclin-4-yl)seryl-3-(3-hexopyranosyl-2-iminoimidazolidin-4-yl)serylseryl]]
MIC Staphylococcus haemolyticus (GC 4546) (Staphylococcus sp.; 5×10^5 CFU/mL): 8 µg/mL (≈ 5.42 µM)
